Source: patent publication US4305950A, “Pharmaceutical agent containing amino derivatives of 2-methyl-5-(2-hydroxystyryl)-1,3,4-thiadiazole” (BASF Aktiengesellschaft, priority 1978, dated 1981)

Tests used:
female NMRI mice = format: in vivo; conditions: for Therapeutic range, relative: mouse, in vivo
cardiac beta-1-receptors = biological target: T1, cardiac beta-1-receptors (Felis catus, UniProt Q9TST6); assay: Beta-sympatholytic action: inhibition of isoproterenol-induced tachycardia in narcotized cats; format: in vivo; conditions: for Beta-sympatholytic action, R.A. (relative activity): Propranolol = 1.00, cats, intravenous; for factor by which doses blocking cardiac beta-1-receptors are lower than those of propranolol: compared to propranolol
T1 construct: in narcotized cats (weight 2-4 kg); from tissue; host or cells: heart of the living narcotized cat (in vivo)
T1 sequence (Q9TST6 whole entry): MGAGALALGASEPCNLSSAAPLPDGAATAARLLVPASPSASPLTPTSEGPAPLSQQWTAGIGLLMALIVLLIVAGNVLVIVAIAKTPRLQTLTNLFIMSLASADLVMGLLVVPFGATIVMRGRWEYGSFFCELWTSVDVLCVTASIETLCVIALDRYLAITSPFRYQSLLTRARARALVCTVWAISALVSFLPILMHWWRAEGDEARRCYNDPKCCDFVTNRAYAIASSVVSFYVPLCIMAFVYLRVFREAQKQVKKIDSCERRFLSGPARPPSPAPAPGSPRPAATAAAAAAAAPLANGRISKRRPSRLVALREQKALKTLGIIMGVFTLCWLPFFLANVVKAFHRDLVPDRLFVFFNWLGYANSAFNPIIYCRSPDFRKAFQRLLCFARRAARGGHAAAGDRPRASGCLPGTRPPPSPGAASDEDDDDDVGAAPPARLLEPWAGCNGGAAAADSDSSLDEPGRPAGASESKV
Text: The following test methods were used:
Beta-sympatholytic agents inhibit such tachycardia.
^(1) Inhibition of isoproterenolinduced tachycardia in cats under
hexobarbital narcosis. Intravenous administration.
^(2) Dose (mg/kg) which inhibits the isoproterenolinduced tachycardia

Row | SMILES | Therapeutic range, relative (female NMRI mice) | Beta-sympatholytic action, R.A. (relative activity) (cardiac beta-1-receptors) | factor by which the therapeutic range is increased, compared to propranolol (female NMRI mice) | factor by which doses blocking cardiac beta-1-receptors are lower than those of propranolol (cardiac beta-1-receptors) | ED50 (cardiac beta-1-receptors; cat, cats under hexobarbital narcosis, intravenous administration, read-out: Beta-sympatholytic action, ED 50% (dose which inhibits the isoproterenol-induced tachycardia by 50%))
1 | Cc1nnc(C=Cc2ccccc2OCC(O)CNC(C)C)s1 (stereo not shown) [Example 1, 2-Methyl-5-[2-(2-hydroxy-3-isopropylamino-propoxy)-styryl]-1,3,4-thiadiazol] | 10.84 | 14.10 | – | – | –
2 | Cc1nnc(C=Cc2ccccc2OCC(O)CNC2CC2)s1 (stereo not shown) [Example 2, 2-Methyl-5-[2-(2-hydroxy-3-cyclopropylamino-propoxy)-styryl]-1,3,4-thiadiazole] | 7.55 | 11.75 | 7.6 | 12 | –
3 | Cc1nnc(C=Cc2ccccc2OCC(O)CNC(C)(C)C)s1 (stereo not shown) [Example 3, 2-Methyl-5-[2-(2-hydroxy-3-tert.-butylamino-propoxy)-styryl]-1,3,4-thiadiazole] | 13.73 | 25.22 | – | 25 | 5.59 µg/kg
4 | C#CC(C)NCC(O)COc1ccccc1C=Cc1nnc(C)s1 (stereo not shown) [Example 7, 2-Methyl-5-[2-(2-hydroxy-3-(but-1-ynyl-3-amino)-propoxy)-styryl]-1,3,4-thiadiazole] | 30.68 | 12.70 | 30.7 | – | –
